Earlier results on one compound are cited in US9012511B2, “Nanoparticulate cinacalcet compositions” (Alkermes Pharma Ireland Limited, priority 2010, dated 2015).

Where two headings read alike, the source gives them in different places.

The conditions of series [1]: fasted subjects; estimated.

Regarding `C[C@@H](NCCCc1cccc(C(F)(F)F)c1)c1cccc2ccccc12.Cl` [Cinacalcet HCl, Cinacalcet hydrochloride], the absolute bioavailability in series [1] is 20-25%. The mean tmax was 6 h (fasting subjects), 4 h (high-fat fed subjects) and 3.5 h (low-fat fed subjects). Besides, the “difference in mean AUC∞ between high- and low-fat meals” value (single oral dose 90 mg) is given as 12 (9.9-26) %. Also, the “mean (90% confidence intervals) AUC[infinity] increase relative to fasting” value (single oral dose 90 mg, high-fat, high-caloric meal) is 68 (48 to 89) % and the “mean (90% confidence intervals) AUC[infinity] increase relative to fasting” value (single oral dose 90 mg, low-fat, low-caloric meal) is on record as 50 (33 to 70) %.
